Consider two molecules from US4780238A (priority 1985, dated 1988).

Structures are written as SMILES.

The subject of the assay is P. aeruginosa. It is filed as cell-based, Pseudomonas aeruginosa.

In the case of `O=[N+]([O-])[O-].O=[N+]([O-])[O-].O=[N+]([O-])[O-].O=[N+]([O-])[O-].[Th+4]` [Th(NO3)4, thorium nitrate], the “lag period of the organism” value was “the lag period of the organism also increased”.
On to `O=[N+]([O-])[O-].O=[N+]([O-])[O-].[O]=[U+2]=[O]` [uranyl nitrate], for which the “inhibitory effect on growth” value was “stronger inhibitory effect on growth of the organism than thorium”.
